This is an account of results in patent US8309721B2, “HSP90 inhibitory carbazole derivatives, compositions containing same and use thereof” (Sanofi, priority 2008, dated 2012).

pIC50: −log10 of the molar value. Where a name gives a salt, the structure may show the parent alone.

In one assay the target is Hsp82 (Saccharomyces cerevisiae, UniProt P02829). As to the kind of experiment: Hsp82/ATPase test (malachite green or PK/LDH coupled method). The class given is biochemical. As to conditions: 1 μM Hsp82, 250 μM ATP, 37° C.; read-out: Hsp82 ATPase IC50. The procedure: The biochemical activity of the compounds can in particular be evaluated by means of the “Hsp82/ATPase” test described below: The inorganic phosphate released during the hydrolysis of ATP by the ATPase activity of Hsp82 is quantified by the malachite green method. In the presence of this reagent, formation of the inorganic phosphate-molybdate-malachite green complex, which absorbs at a wavelength of 620 nm, occurs. The products to be evaluated are incubated in a reaction volume of 30 μl, in the presence of 1 μM Hsp82 and of 250 μM of substrate (ATP) in a buffer composed of 50 mM Hepes-NaOH (pH 7.5), 1 mM DTT, 5 mM MgCl2 and 50 mM KCl at 37° C. for 60 min. In parallel, an inorganic phosphate range of between 1 and 40 μM is made up in the same buffer. […] After incubation at ambient temperature for 20 min, the absorbance of the various wells is measured using a microplate reader at 620 nm. The inorganic phosphate concentration of each sample is then calculated from the standard curve. The ATPase activity of Hsp82 is expressed as concentration of inorganic phosphate produced in 60 minutes. The effect of the various products tested is expressed as percentage inhibition of the ATPase activity. The formation of ADP due to the ATPase activity of Hsp82 was used to develop another method for evaluating the enzyme activity of this enzyme by application of an enzymatic coupling system involving pyruvate kinase (PK) and lactate dehydrogenase (LDH). In this kinetic-type spectrophotometric method, PK catalyses the formation of ATP and of pyruvate from phosphoenol pyruvate (PEP) and the ADP produced by Hsp82. The pyruvate formed, which is a substrate for LDH, is subsequently converted to lactate in the presence of NADH. In this case, the decrease in the NADH concentration, measured through the decrease in absorbance at the wavelength of 340 nm, is proportional to the concentration of ADP produced by Hsp82. The products tested are incubated in a reaction volume of 100 μl of buffer composed of 100 mM Hepes-NaOH (pH 7.5), 5 mM MgCl2, 1 mM DTT, 150 mM KCl, 0.3 mM NADH, 2.5 mM PEP and 250 μM ATP. This mixture is preincubated at 37° C. for 30 minutes before the addition of 3.77 units of LDH and 3.77 units of PK. The reaction is initiated by addition of the product to be evaluated, in varying concentrations, and of Hsp82, at the concentration of 1 μM. The enzymatic activity of Hsp82 is then measured continuously, in a microplate reader, at 37° C., at the wavelength of 340 nm. The initial rate of the reaction is obtained by measuring the slope of the tangent to the origin of the curve recorded. The enzymatic activity is expressed in μM of ADP formed per minute. The effect of the various products tested is expressed as percentage inhibition of the ATPase activity according to the codification below: […]
Hsp82, sequence (P02829 whole entry): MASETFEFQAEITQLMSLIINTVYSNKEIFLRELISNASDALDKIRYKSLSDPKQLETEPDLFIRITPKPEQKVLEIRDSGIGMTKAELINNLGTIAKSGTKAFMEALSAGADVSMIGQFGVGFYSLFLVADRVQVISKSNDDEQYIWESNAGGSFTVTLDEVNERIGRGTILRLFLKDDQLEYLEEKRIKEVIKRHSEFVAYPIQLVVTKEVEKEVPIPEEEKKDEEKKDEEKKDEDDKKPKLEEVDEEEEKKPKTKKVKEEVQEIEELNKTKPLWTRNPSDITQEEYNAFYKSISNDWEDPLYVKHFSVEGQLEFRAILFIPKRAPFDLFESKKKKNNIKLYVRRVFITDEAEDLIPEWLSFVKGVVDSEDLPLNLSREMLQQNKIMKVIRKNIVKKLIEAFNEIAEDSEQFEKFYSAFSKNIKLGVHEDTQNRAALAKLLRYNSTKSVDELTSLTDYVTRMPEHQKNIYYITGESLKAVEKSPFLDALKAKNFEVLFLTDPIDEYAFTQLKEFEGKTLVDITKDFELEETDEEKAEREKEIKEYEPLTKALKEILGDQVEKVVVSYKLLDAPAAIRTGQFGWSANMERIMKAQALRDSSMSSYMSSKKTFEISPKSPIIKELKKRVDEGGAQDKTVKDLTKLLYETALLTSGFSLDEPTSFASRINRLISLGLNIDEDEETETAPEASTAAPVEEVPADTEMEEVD

The subject of assay [1] is Her2 receptor expression at the surface of SKBr3 cells. As to the kind of experiment: phenotypic SKBr3/HER2 cell test (Her2 surface expression by flow cytometry). The class given is cell-based. As to conditions: Homo sapiens, SK-BR-3, 24 h incubation, inhibition of Her2 expression. The protocol:
The cellular activity of the compounds can in particular be evaluated by means of the phenotypic “SKBr3/HER2” cell test described below:
The SKBr3 […] adenocarcinoma cells, overexpressing the Her2 tyrosine kinase receptor, originate from the ATCC (HTB-30) and are cultured in McCoy's 5A medium supplemented with 10% FBS and 1% L-glutamine.
The cells are seeded in 12-well plates at a proportion of 125 000 cells per well in 1 ml of complete medium. The following day, the products are added at varying concentrations. After incubation for 24 h, the cells are trypsinized, washed with PBS and incubated with 100 ng of anti-Her2 antibody coupled to PE (Phycoerythrin) (BD 340552) for 30 minutes at 4° C. in the dark. The fluorescence due to the expression of the Her2 receptor at the surface of the cells is then read using a FACS Calibur flow cytometer (Becton-Dickinson). The percentage inhibition of Her2 expression as a function of the concentrations of product tested is fitted by the nonlinear regression technique (XLfit, equation 205) in order to measure an IC50 for each product.

Regarding `CC(O)CCNc1cc(-n2c3ccccc3c3c(-c4nc5ccc(F)cc5[nH]4)cccc32)ccc1C(N)=O` (racemic) [Example 37, 4-[4-(6-fluoro-1H-benzimidazol-2-yl)-9H-carbazol-9-yl]-2-[3(R,S)hydroxybutylamino)benzamide], the pIC50 (at Hsp82; in assay [1]) was > 6.00 in each case. Turning to `CC(CCO)Nc1cc(-n2c3ccccc3c3c(-c4nc5ccc(F)cc5[nH]4)cccc32)ccc1C(N)=O` (racemic) [Example 39], the pIC50 (at Hsp82; in assay [1]) was > 6.00 each time. Regarding `CC(O)CNc1cc(-n2c3ccccc3c3c(-c4nc5ccc(F)cc5[nH]4)cccc32)ccc1C(N)=O` (racemic) [Example 40, 4-[4-(6-fluoro-1H-benzimidazol-2-yl)-9H-carbazol-9-yl]-2-(2(R,S)-hydroxypropylamino)benzamide], the negative-log IC50 (pIC50) (on Hsp82; in assay [1]) was > 6.00 throughout.

Regarding `CC(CCO)Nc1cc(-n2c3ccccc3c3c(-c4cnc5ccccc5c4)cccc32)ccc1C(N)=O` (racemic) [Example 41, 2-[1-hydroxybutan-3(R,S)-ylamino]-4-[4-(quinolin-3-yl)-9H-carbazol-9-yl]benzamide], the pIC50 (at Hsp82; in assay [1]) was > 6.00 each time. For `NCCCC[C@@H](N)C(=O)O[C@H]1CC[C@H](Nc2cc(-n3c4ccccc4c4c(-c5nc6ccc(F)cc6[nH]5)cccc43)ccc2C(N)=O)CC1` (stereo in doubt) [Example 36, trifluoroacetate of the 4-trans-{2-carbamoyl-5-[4(6-fluoro-1H-benzimidazol-2-yl)-9H-carbazol-9-yl]phenylamino}cyclohexyl ester of (S)-2,6-diaminohexanoic acid], the negative logarithm of the IC50 (pIC50) (at Hsp82; in assay [1]) was > 6.00 each time. For `NC(=O)c1ccc(-n2c3ccccc3c3c(-c4nc5ccc(F)cc5[nH]4)cccc32)cc1N[C@H]1CC[C@H](O)CC1` [Example 1, 4-[4-(6-fluoro-1H-benzimidazol-2-yl)-9H-carbazol-9-yl]-2-(4-trans-hydroxycyclohexylamino)benzamide], the pIC50 (on Hsp82; in assay [1]) was > 6.00 each time. In the case of `NC(=O)c1ccc(-n2c3ccccc3c3c(-c4cnc5ccccc5c4)cccc32)cc1N[C@H]1CC[C@H](O)CC1` [Example 2, 2-(4-trans-hydroxycyclohexylamino)-4-[(4-quinolin-3-yl)-9H-carbazol-9-yl]benzamide], the negative-log IC50 (pIC50) (at Hsp82; in assay [1]) was > 6.00 each time. On to `CCN(CC)CCNc1cc(-n2c3ccccc3c3c(-c4nc5ccc(F)cc5[nH]4)cccc32)ccc1C(N)=O` [Example 3, 2-(2-diethylaminoethylamino)-4-[4-(6-fluoro-1H-benzimidazol-2-yl)-9H-carbazol-9-yl]benzamide], for which the pIC50 (on Hsp82; in assay [1]) was > 6.00 each time. `NC(=O)c1ccc(-n2c3ccccc3c3c(-c4nc5ccncc5[nH]4)cccc32)cc1N[C@H]1CC[C@H](O)CC1` [Example 4, 2-(4-trans-hydroxycyclohexylamino)-4-[4-(3H-imidazo[4,5-c]pyridin-2-yl)-9H-carbazol-9-yl]benzamide]: the negative logarithm of the IC50 (pIC50) (on Hsp82; in assay [1]) was > 6.00 each time. `CC(=O)O[C@H]1CC[C@H](Nc2cc(-n3c4ccccc4c4c(-c5nc6ccc(F)cc6[nH]5)cccc43)ccc2C(N)=O)CC1` [Example 5, acetic acid 4-{2-carbamoyl-5-[4-(6-fluoro-1H-benzimidazol-2-yl)-9H-carbazol-9-yl]phenylamino}-trans-cyclohexyl ester]: the figures for the pIC50 (at Hsp82; in assay [1]) were 5.00 to 6.00 and > 6.00, respectively. With `NC(=O)c1ccc(-n2c3ccccc3c3c(-c4nc5ccc(F)cc5[nH]4)cccc32)cc1NC1CCCCC1` [Example 6, 2-cyclohexylamino-4-[4-(6-fluoro-1H-benzimidazol-2-yl)-9H-carbazol-9-yl]benzamide], the negative logarithm of the IC50 (pIC50) on Hsp82 was 5.00 to 6.00; in assay [1], > 6.00. The like results for `NC(=O)c1ccc(-n2c3ccccc3c3c(-c4nc5ccc(F)cc5[nH]4)cccc32)cc1NCCOCCO` [Example 7, 4-[4-(6-fluoro-1H-benzimidazol-2-yl)-9H-carbazol-9-yl]-2-[2-(2-hydroxyethoxy)ethylamino]benzamide] were, in that order, > 6.00 and > 6.00. On the same counts, the results for `NC(=O)c1ccc(-n2c3ccccc3c3c(-c4nc5ccc(F)cc5[nH]4)cccc32)cc1NCCCO` [Example 8, 4-[4-(6-fluoro-1H-benzimidazol-2-yl)-9H-carbazol-9-yl]-2-(3-hydroxypropylamino)benzamide] are > 6.00 and > 6.00.

Regarding `NC(=O)c1ccc(-n2c3ccccc3c3c(-c4nc5ccc(F)cc5[nH]4)cccc32)cc1N[C@H]1CC[C@@H](O)CC1` [Example 9, 4-[4-(6-fluoro-1H-benzimidazol-2-yl)-9H-carbazol-9-yl]-2-(4-cis-hydroxycyclohexylamino)benzamide], the pIC50 on Hsp82 is 5.00 to 6.00; in assay [1] it was > 6.00.

On to `NC(=O)c1ccc(-n2c3ccccc3c3c(-c4nc5cc(F)ccc5[nH]4)cccc32)cc1N` [Example 10, 2-amino-4-[4-(6-fluoro-1H-benzimidazol-2-yl)-9H-carbazol-9-yl]benzamide], for which the figures for the pIC50 (on Hsp82; in assay [1]) were > 6.00 and 5.00 to 6.00, respectively. On the same counts, the results for `NC(=O)c1ccc(-n2c3ccccc3c3c(-c4nc5ccc(F)cc5[nH]4)cccc32)cc1NCCN1CCCC1` [Example 11, 4-[4-(6-fluoro-1H-benzimidazol-2-yl)-9H-carbazol-9-yl]-2-(2-pyrrolidin-1-ylethylamino)benzamide] are > 6.00 and > 6.00.

For `Nc1n[nH]c2cc(-n3c4ccccc4c4c(-c5nc6ccc(F)cc6[nH]5)cccc43)ccc12` [Example 12, 6-[4-(6-fluoro-1H-benzimidazol-2-yl)-9H-carbazol-9-yl]-1H-indazol-3-ylamine], the pIC50 (on Hsp82; in assay [1]) was 5.00 to 6.00 throughout. Take `Nc1noc2cc(-n3c4ccccc4c4c(-c5nc6ccc(F)cc6[nH]5)cccc43)ccc12` [Example 13, 6-[4-(6-fluoro-1H-benzimidazol-2-yl)-9H-carbazol-9-yl]-1,2-benzisoxazol-3-ylamine]: the pIC50 (at Hsp82; in assay [1]) was 5.00 to 6.00 throughout. As to `NC(=O)c1ccc(-n2c3ccccc3c3c(-c4nc5ccc(F)cc5[nH]4)cccc32)cc1F` [Example 14, 2-fluoro-4-[4-(6-fluoro-1H-benzimidazol-2-yl)-9H-carbazol-9-yl]benzamide], the negative-log IC50 (pIC50) on Hsp82 is 5.00 to 6.00; in assay [1], > 6.00. On to `NC(=O)c1ccc(-n2c3ccccc3c3c(-c4cnc(N)nc4)cccc32)cc1NCCCO` [Example 56, 4-[4-(2-aminopyrimidin-5-yl)-9H-carbazol-9-yl]-2-[(3-hydroxypropyl)amino]benzamide hydrochloride], for which the pIC50 at Hsp82 is > 6.00. On to `NC(=O)c1ccc(-n2c3ccccc3c3c(-c4cncc(O)c4)cccc32)cc1NCCCO` [Example 141, 2-[(3-hydroxypropyl)amino]-4-[4-(5-hydroxypyridin-3-yl)-9H-carbazol-9-yl]benzamide], for which, in assay [1], the negative logarithm of the IC50 (pIC50) was > 6.00. Turning to `NC(=O)c1cnc(-n2c3ccccc3c3c(-c4cnc5ccccc5c4)cccc32)cc1N[C@H]1CC[C@H](O)CC1` [Example 142, 2-[4-(quinolin-3-yl)-9H-carbazol-9-yl]-4-(4-trans-hydroxycyclohexylamino)pyridine-5-carboxamide], the negative-log IC50 (pIC50) in assay [1] is > 6.00.
